One series concerns bile acid metabolism. Description: Analysis of bile acid metabolism markers (glycine, taurine) by NMR in serum and urine of high-fat-diet mice. The series is classed as in vivo, C57BL6/J male mice. The note with it: gallic acid 100 mg/kg orally daily (the third group), 16-week-old. The method, then: (§1) The gallic acid is purchased from Sigma, U.S.A.
(§2) In addition, to ensure experimental stability, the mice in the first and second group were given water at a volume the same as that in the third and fourth group. At the age of 16-week-old, the urine of the mice was collected, and the concentration of the blood glucose and serum insulin were measured. Then, the mice were sacrificed, and the serum was collected for the analysis of metabolic markers. The liver was weighted and photographed.
(§3) The collected blood and urine were analyzed by a nuclear magnetic resonance spectrum. The steps are shown as follows. • (1) Urine: The urine (500 μl), PBS (50 μl) (81:19 vol/vol, comprising 0.2 M NaHPO4 and 0.2 M NaH2PO4, pH=7.4), 10% deuteroxide, and 0.03% trimethylsilyl propionate (TSP) were mixed in a micro-centrifuge tube and centrifuged with 13000 rpm for 20 minutes at 4° C. The supernatant (500 μl) was collected and analyzed by 600 MHz nuclear magnetic resonance (NMR, Bruker AVANCE 600AV) at 25° C. The 1D NOESY FID signal was transferred to a one-dimensional NMR spectrum of graphing through Fourier transform. • (2) Blood: The serum (250 μl) and deuteroxide (350 μl) were mixed in a micro-centrifuge tube and centrifuged with 13000 rpm for 20 minutes at 4° C. The supernatant (500 μl) was collected and analyzed. The metabolites in serum were analyzed by using NMR sequence CPMG.
It has been known that the concentration of taurine and glycine can be used as markers of bile acid metabolism (see Miyazaki T, Matsuzaki Y (2012) Taurine and liver diseases: a focus on the heterogeneous protective properties of taurine. Amino Acids, which is entirely incorporated hereinto by reference). Therefore, the integrated area of the spectrum of glycine (chemical shift 3.56 ppm singlet) and the taurine (chemical shift 3.40 ppm triplet) in the blood and urine were analyzed.

For another series, the system named is amino acid metabolism. Description: Analysis of amino acid metabolism markers by NMR in serum of high-fat-diet mice. It counts as in vivo, C57BL6/J male mice. The following applies: gallic acid 100 mg/kg orally daily (the third group). The method, then:
as §1, §2, §3
It has been known that the concentration of isoleucine, leucine, valine, glutamate, glutamine, tyrosine, phenylalanine, alanine, lysine, arginine and ornithine can be used as the markers of amino acid metabolism (see Rare Disease Diet Control Manual—amino acid metabolism, Foundation for Rare Disorders, pages 18, 22, 26-31, which is entirely incorporated hereinto by reference). Therefore, the integrated area of the spectrum of isoleucine (chemical shift 1.01 ppm dublet), the leucine (chemical shift 0.97 ppm triplet) and the valine (chemical shift 1.04 ppm doublet) in the serum were analyzed.

The subject of series [1] is gut microbiota metabolism. Kind of series: Analysis of gut microbiota metabolism markers by NMR in serum and urine of high-fat-diet mice. It counts as in vivo, C57BL6/J male mice. The following applies: gallic acid 100 mg/kg orally daily (the third group). The method, then: as §1, §2, §3
It has been known that the concentration of isobutyric acid, butanoic acid, hippuric acid, dimethylamine and trimethylamine can be used as the markers of the gut microbiota metabolism and reflect the change of gut microbiota. Therefore, the integrated area of the spectrum of isobutyric acid, butanoic acid, hippuric acid, dimethylamine and trimethylamine in the blood and urine were analyzed.

In series [2] the test system is nonalcoholic fatty liver and insulin resistance in mice induced by the high-fat-diet. Description: Liver weight, blood glucose, serum insulin and liver pathology in high-fat-diet mice. It counts as in vivo, C57BL6/J male mice. The following applies: gallic acid 50 or 100 mg/kg orally daily, compared to the high-fat-diet group. The method, then:
as §1, §2

The subject of the next series is mouse. The following applies: cited from earlier work.

Structures are written as SMILES.

In the case of `O=C(O)c1cc(O)c(O)c(O)c1` [gallic acid], in the series on bile acid metabolism (serum), the “glycine, integrated area of NMR spectrum” value was 142.91 ± 10.60 the normalized and transferred NMR signal × 10^3. In the series on bile acid metabolism (urine), the “glycine, integrated area of NMR spectrum” value was 206.51 ± 8.45 the normalized and transferred NMR signal × 10^3; the “taurine, integrated area of NMR spectrum” value was 489.81 ± 125.78 the normalized and transferred NMR signal × 10^3. For the same molecule, in the series with amino acid metabolism, the “alanine, integrated area of NMR spectrum” value was 96.11 ± 6.07 the normalized and transferred NMR signal × 10^3; the “arginine, integrated area of NMR spectrum” value is 30.08 ± 0.78 the normalized and transferred NMR signal × 10^3; the “glutamate, integrated area of NMR spectrum” value is 39.50 ± 1.39 the normalized and transferred NMR signal × 10^3; the “glutamine, integrated area of NMR spectrum” value is 40.61 ± 3.88 the normalized and transferred NMR signal × 10^3. Besides, in the series on amino acid metabolism, the “isoleucine, integrated area of NMR spectrum” value is 32.29 ± 3.25 the normalized and transferred NMR signal × 10^3; the “leucine, integrated area of NMR spectrum” value was 109.28 ± 2.36 the normalized and transferred NMR signal × 10^3; the “lysine, integrated area of NMR spectrum” value is 74.93 ± 2.24 the normalized and transferred NMR signal × 10^3; the “ornithine, integrated area of NMR spectrum” value is 36.39 ± 1.45 the normalized and transferred NMR signal × 10^3. Besides, in the series on amino acid metabolism, the “phenylalanine, integrated area of NMR spectrum” value was 6.44 ± 0.39 the normalized and transferred NMR signal × 10^3; the “tyrosine, integrated area of NMR spectrum” value was 6.78 ± 0.85 the normalized and transferred NMR signal × 10^3; the “valine, integrated area of NMR spectrum” value is 68.26 ± 3.46 the normalized and transferred NMR signal × 10^3. For the same molecule, the “isobutyric acid, integrated area of NMR spectrum” value in series [1] (serum) is 22.49 ± 1.55. In series [1] (urine), the “butanoic acid, integrated area of NMR spectrum” value was 187.08 ± 10.46; the “dimethylamine, integrated area of NMR spectrum” value was determined as 197.9 ± 9.20; the “hippuric acid, integrated area of NMR spectrum” value was determined as 10.33 ± 0.90; the “trimethylamine, integrated area of NMR spectrum” value was 269.21 ± 76.77. Moreover, in series [2] (FIGS. 1, 4A, 4B), the “effect on nonalcoholic fatty liver induced by the high-fat-diet” value is recorded as “ameliorating”. Besides, the “effect on insulin resistance induced by the high-fat-diet” value in series [2] (FIGS. 2, 3) is on record as “ameliorating”. Also, the “No Observed Adverse Effect Level (NOAEL)” value in the series with mouse is “greater than 5000 mg/kg”.

The values are drawn from US9744146B2, “Method for alleviating disturbance of bile acid metabolism, amino acid metabolism, and/or gut microbiota metabolism” (China Medical University, priority 2013, dated 2017).
